Source: patent publication US20260248744A1, “USE OF NON-TOXIC POLYAMINE ANALOGUES AND/OR INHIBITORS OF POLYAMINE BIOSYNTHESIS TO RE-BALANCE NATURAL POLYAMINE LEVELS IN SNYDER-ROBINSON SYNDROME AND RELATED DISORDERS” (The Johns Hopkins University, priority 2022, published 2026)

Assays:
SRS fibroblast lines = test: Proliferation of SRS fibroblast lines cotreated with DFMO and Me2Spm; format: cell-based; settings: cotreated with DFMO and Me2Spm for 96 h (FIG. 4C)
Description: (FIG. 4B) DFMO cooperates with Me2Spm in improving SPD/SPM ratio, indicated by numbers above columns. […] In FIG. 4A and FIG. 4B, SRS patient-derived lymphoblastoid cells were pretreated with DFMO followed by 96-h cotreatment with DFMO and Me2Spm. SRS fibroblast lines in FIG. 4C were cotreated with DFMO and Me2Spm for 96 h;

[1] = shown previously (Murray Stewart et al., 2020); cited from earlier work
WT male C57Bl/6J mice = test: Long-term in vivo exposure to low-dose (R,R)-1,12-Me2Spm in mice; settings: WT male C57Bl/6J mice (FIG. 2)
Text: Without wishing to be bound to any one particular theory, it is thought that inhibiting polyamine biosynthesis will enhance uptake of 1,12-Me2Spm and/or reduce the dose necessary for spermidine reduction.

SRS cells = test: Treatment of SRS cells with AdoDATO (polyamine levels); format: cell-based; settings: SRS cells (FIG. 6)
[2] = target: T1, spermidine synthase (SRM) (Homo sapiens, UniProt P19623); test: Inhibition of spermidine synthase
T1 sequence (P19623 1-302): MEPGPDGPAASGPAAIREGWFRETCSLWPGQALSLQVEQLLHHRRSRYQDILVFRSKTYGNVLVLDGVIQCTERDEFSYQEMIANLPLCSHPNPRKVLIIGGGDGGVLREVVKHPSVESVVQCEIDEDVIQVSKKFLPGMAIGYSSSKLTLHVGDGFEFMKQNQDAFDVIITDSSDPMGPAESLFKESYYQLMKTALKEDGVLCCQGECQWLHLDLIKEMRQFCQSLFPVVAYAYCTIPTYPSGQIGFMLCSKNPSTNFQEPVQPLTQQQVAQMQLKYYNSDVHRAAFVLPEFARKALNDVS

[3] = tested on: SRS patient-derived cell lines; test: Response of SRS patient-derived cell lines to DFMO (conversion of SPD to SPM); format: cell-based
[4] = tested on: SRS patient-derived lymphoblastoid cells; test: Polyamine levels in SRS patient-derived lymphoblastoid cells treated with DFMO and Me2Spm; format: cell-based; settings: DFMO pretreatment followed by 96-h cotreatment (FIG. 4A)
SAMDC = SAMDC activity in SRS cells treated with DFMO; format: cell-based; settings: FIG. 5C
Text: (§1) FIG. 5A, FIG. 5B, FIG. 5C, FIG. 5D, and FIG. 5E show potential therapeutic targets and molecules in the response of SRS cells to DFMO.

[5] = tested on: SRS cells with a complete loss-of-function mutation in SMS; test: Response to DFMO of SRS cells with complete loss-of-function mutation in SMS; format: cell-based; settings: response to DFMO (FIG. 5E)
Text: as §1

children = settings: Phase 2 preventative trials in pediatric neuroblastoma; ODC1/Bachmann-Bupp trials; cited from earlier work

In the case of `C[C@@H](N)CCNCCCCNCC[C@@H](C)N` [(R,R)-1,12-dimethylspermine], the “rescue of DFMO-mediated growth inhibition” value (SRS fibroblast lines) is given as “rescues DFMO-mediated growth inhibition”, the metabolic stability [1] is given as “metabolically stable” and the SPD/SPM ratio (WT male C57Bl/6J mice) is given as “improves the SPD/SPM ratio”. The “toxicity of long-term in vivo exposure” value (WT male C57Bl/6J mice) was “nontoxic”.
In the case of `NCCCCC[S+](CCN)CC1OC(n2cnc3c(N)ncnc32)C(O)C1O` (stereo not drawn) [AdoDATO, S-adenosyl-1,8-diamino-3-thio-octane], the SPD/SPM ratio (SRS cells) is reported as “improves the SPD/SPM ratio”, the levels of putrescine (SRS cells) is reported as “maintaining levels of putrescine” and the “inhibition of spermidine synthase (SRM)” value [2] is reported as “inhibits spermidine synthase (SRM)”.
In the case of `N=C(N)c1cccc2c1CC/C2=N\N=C(N)N` [CGP48664], the “conversion to SPM on cotreatment with DFMO” value ([3]; cotreatment of DFMO with SAMDC inhibitor (FIG. 5D)) is reported as “prevents the conversion to SPM”.
In the case of difluoromethylornithine [DFMO], the “uptake of Me2Spm” value [4] is reported as “increases uptake of Me2Spm”, the levels of putrescine (SRS cells) is reported as “depletes” and the SAMDC activity (SAMDC) is reported as “induces SAMDC activity”. For the same compound, the “conversion of SPD to SPM” value [5] was “do not convert SPD to SPM”, the SPD/SPM ratio ([3]; SRS patient-derived cell lines (FIG. 5B)) was “correction of the SPD/SPM ratio” and the “conversion of SPD to SPM” value ([3]; hypomorphic SRS cells (FIG. 5A)) was “enhances conversion of SPD to SPM”. The safety in children (children) was “safe in children”.
